Four molecules from patent US9617222B1, “Alkynyl indazole derivative and use thereof” (SENJU PHARMACEUTICAL CO., LTD., priority 2014, dated 2017) can be followed below.

As usually defined, the solubility is how much of the substance goes into solution per volume. Higher therefore signals a readily soluble substance.

Structures are written as SMILES. ≈ marks a conversion by molar mass, not a printed value.

A short description of data set [1]: Drug penetrating test to retina/choroid after instillation. The data set is classed as in vivo, rabbit (Japanese white rabbit). The following applies: rabbit, 2 hours after instillation; for concentration at 2 h: Japanese white, retina/choroid, topical, 50 μL/eye of 0.25% suspension, 0.25% suspension eye drop 50 μL/eye, average ± standard deviation; for drug penetrating concentration in the retina/choroid compared with compound B: p≦0.05. Here is the method: For the compounds 8, 27 and B produced in Examples, drug penetrating concentrations to retina/choroid tissues after instillation were measured. […] In order to measure the drug concentration in the retina/choroid tissues, the eye drop was administered to rabbits (Japanese white rabbit) at 50 μL/eye, the rabbits were euthanized 2 hours after instillation, and the eyeballs were excised. The excised eyeballs were frozen with liquid nitrogen, split into two parts along the equatorial plane, and then the retina/choroid tissues were sampled from the posterior eye segment. In order to extract the compound from the sampled tissues, the tissues were finely cut in methanol to prepare a lysate, and subsequently the lysate was centrifuged to collect the supernatant. To the extracted solution of the compound from the supernatant, an equivalent amount of ultrapure water was added, and the solution was filtered through a membrane filter (0.22 μm), and the filtrate was designated as a final measurement solution. The drug concentration in the filtrate was analyzed by liquid chromatography mass spectrometry (LC/MS/MS), and the compound concentration in the retina/choroid tissues was calculated from the peak area value obtained by an external standard method. Analysis conditions of LC/MS/MS are as below. For the compound concentration in the retina/choroid, null hypothesis test was carried out using JMP (registered trademark) (SAS Institute Inc.), the outlier was excluded, and then the average value±standard deviation was used.

The subject of data set [2] is Human Retinal Microvascular Endothelial (hRMVE) Cells (hRMVEC). Description: Growth inhibition of hRMVE cells under VEGF stimulation (MTT assay). The data set is classed as cell-based. As to conditions: recombinant human VEGF, 48 hours, read-out: Cell Growth Inhibition Activity. Background: Formazan colour is commonly taken as a measure of viable cells.
Data set [3] is described as follows: Solubility test in 0.1% phosphate buffer solution (pH 7.0). In kind it is physicochemical. The following applies: for solubility: aqueous buffer, thermodynamic from solid, 0.1% phosphate buffer solution (pH 7.0), room temperature overnight. Here is the method: The mixture was subjected to ultrasonic irradiation for 30 seconds, and then shaken at room temperature overnight. The resulting suspension was left at rest at room temperature for 30 minutes, then filtered through a chromatography disc (0.20 μm) to prepare a sample solution. The sample solution and the standard solution were analyzed by LC-MS (product name: ACQUITY UPLC H-CLASS SYSTEM and Xevo TQ-S, produced by Nihon Waters K.K.), and a solubility was calculated from the obtained peak area value by an external standard method.

On to `CNC(=O)c1ccccc1Sc1ccc2c(C#Cc3ccc(NC(=O)NCCOCCOCCOC)cc3)n[nH]c2c1` [Compound 8, 2-[(3-{[4-(3-{2-[2-(2-methoxyethoxy)ethoxy]ethyl}ureido)phenyl]ethynyl}-1H-indazol-6-yl)thio]-N-methylbenzamide], for which, in data set [1], the concentration at 2 h turned out to be 2.6 ± 1.04 ng/g and the “drug penetrating concentration in the retina/choroid compared with compound B” value is listed as “significantly higher”. In addition, the IC50 in data set [2] came out at 1.2 nM. This molecule also displayed a solubility in data set [3] of 1 µg/mL (≈ 1.7 µM).
In the case of `CNC(=O)c1ccccc1Sc1ccc2c(C#Cc3ccc(NCCOCCOCCOC)cc3)n[nH]c2c1` [Compound 27, 2-[(3-{[4-({2-[2-(2-methoxyethoxy)ethoxy]ethyl}amino)phenyl]ethynyl}-1H-indazol-6-yl)thio]-N-methylbenzamide], in data set [1], the concentration at 2 h was determined as 1.62 ± 0.68 ng/g and the “drug penetrating concentration in the retina/choroid compared with compound B” value is recorded as “significantly higher”. The IC50 in data set [2] came to 1.2 nM. The solubility in data set [3] was determined as 0.48 µg/mL (≈ 0.881 µM).
Take `CNC(=O)c1ccccc1Sc1ccc2c(/C=C/c3ccccn3)n[nH]c2c1` [Compound A, 6-[2-(methylcarbamoyl)phenylsulfanyl]-3-E-[2-(pyridine-2-yl)ethenyl]indazole, reference compound]: the “photostability in solution (in words)” value is listed as “poor photostability”. Also, the solubility in data set [3] worked out at 0.045 µg/mL (≈ 0.116 µM). Also, the “solubility in aqueous solution (in words)” value in data set [3] (aqueous solution) is listed as “low”.
Turning to `CNC(=O)c1ccccc1Sc1ccc2c(C#Cc3ccccn3)n[nH]c2c1` [Compound B, 6-[2-(methylcarbamoyl)phenylsulfanyl]-3-[2-(pyridine-2-yl)ethynyl]indazole, reference compound], the concentration at 2 h in data set [1] was determined as 0.51 ± 0.1 ng/g. Moreover, the IC50 in data set [2] turned out to be 1.6 nM. In data set [3], this molecule yielded a solubility of 0.084 µg/mL (≈ 0.218 µM).
